Where “and” joins values, the source holds several entries; their conditions need not be identical. Identical values can stand only once. Counter-ions that a name gives are not always drawn. Like-named read-outs stand apart in the source and are kept apart here.
Columns and labels:
[1] = system: patients with major depressive disorder; test: Phase 2a cardiodynamic ECG evaluation (concentration-QTc and by-time point analysis); format: in vivo, human
Method: (§1) Timed PK assessments were performed on Day 1 and after approximately 23 hours post Day 1 dosing, and thus for the exposure-response analysis only the Day 1 ECG data is utilized.
The 12-lead digital ECG equipment was supplied and supported by the central ECG core lab vendor, eResearch Technology, Inc., ERT (Philadelphia, PA). After a supine rest period, ECGs were collected in triplicate at the pre-specific time points indicated within the study protocol and described below.
Twelve-lead ECGs were to be performed in triplicate approximately 1 minute apart after lying quietly for at least 3 min at: • Screening • Check-in (Day—1) • Day 1: 1 hour pre-dose and 2 hours, 4 hours, 6 hours, and 8 hours post-dose on Day 1 • Day 2: 1 hour pre-dose (corresponding to 23 hours post-dose on Day 1) and 2 hours, 4 hours, 6 hours, and 8 hours post-dose • Days 3-7: 2 hours post-dose • Day 8 • Prior to discharge on Day 9 • End of the observation period (Day 14)
The QT and RR value for each measured beat were used for HR correction. Three beats were measured on each of the triplicate ECGs at each time point. The mean value from each triplicate tracing was calculated, and then the mean of all available measurements from a nominal time point were used as the patient's reportable value at that time point. • 5. ECG Methodology: Central Laboratory
[published correction appears in J Pharmacokinet Pharmacodyn. […] J Pharmacokinet Pharmacodyn. […] In all calculations, concentrations in patients who received placebo were set to zero.
(§2) The geometric mean of the individual Cmax values for patients in each of the active dose groups was determined.
An unstructured covariance matrix was specified for the repeated measures at post-dose time points within patient.

[2] = system: healthy volunteers; test: Phase 1 study esmethadone-112 concentration-QTc sub-analysis; format: in vivo, human
[3] = Phase 1 pharmacokinetics of immediate release esmethadone (Bernstein 2019); format: in vivo; details: human, plasma; 25 mg oral daily dosing ×10 days; read-out: Steady state Cmax
Method: […]. […] Therefore, dose proportionality and linearity after oral administration of each of the three molecules, based on the data from Bernstein 2019 and Foster 2004 are expected. […].
Steady state Curough concentrations (measured at Day 10) were 142.7, 326.2 and 338.8 ng/ml respectively.

[4] = Phase 2a study plasma pharmacokinetics; format: in vivo, human; details: for Cmax: human, in vivo, C-QTc population
Method: as §1
PK sampling was done on Day 1 at 1 hour pre-dose and 0.5, 1, 2, 4, 6, 8, and 12 hours post-dose. On Day 2 through Day 7, sampling was done 1 hour pre-dose. On Day 8, sampling was done approximately 24 hours after the last dose of study drug (on Day 7). On Day 9, sampling was done approximately 48 hours after the last dose (on Day 7).
as §2

[5] = cited from earlier work
[6] = target: T1, hERG (Homo sapiens, UniProt Q12809); test: GLP hERG channel current study of esmethadone; details: human
[7] = target: hERG (human ether-à-go-go-related gene) channel current (Homo sapiens, UniProt Q12809); test: GLP hERG channel current study of esmethadone
[8] = in vitro; details: human; for Papp A→B / Papp B→A: Caco-2, pH 6.5, Permeability
Excerpt: (§3) Based on historical data obtained in the experimental model, the mean permeability value (Papp) for each reference compound was expected to fall within the predetermined specifications.
(§4) Fluorescein was used as the zero-permeability marker in all Caco-2 cell assays as a quality control for the integrity of the Caco-2 monolayer. […] Well-defined criteria (known or readily available to those of ordinary skill in the art) have been established for the acceptance of fluorescein results to validate monolayer integrity.
(§5) Testing concentrations for the in vitro permeability assessment were determined at 1%, 10%, and 100% of the highest strength dissolved in 250 mL. […]

[9] = system: Caco-2 monolayer; test: in vitro
Excerpt: as §3, §4, §5

[10] = in vitro; details: 37° C., 100 μg/mL
Method: Gastrointestinal solution stability was performed along with the Caco-2 cell permeability assay study.

[11] = Equilibrium solubility study; details: for solubility thermodynamic: 37 °C, thermodynamic from solid, Equilibrium solubility
[12] = target: T1, hERG; test: Non GLP hERG channel current study (manual patch); format: cell-based; details: human
Method: (§6) The objective of this study was to examine the in vitro effects of three test articles on the hERG (human ether-a-go-go-related gene) channel current (a surrogate for the rapidly activating delayed rectifier cardiac potassium current, IKr). The concentration-response relationship was evaluated at near-physiological temperature (35-37° C.

[13] = target: hERG (human ether-a-go-go-related gene) channel current (Homo sapiens, UniProt Q12809); test: Non GLP hERG channel current study (manual patch); format: cell-based; details: for Hill coefficient: non GLP study
Method: as §6

[14] = linear mixed-effects model, C-QTc population
[15] = simulated gastric fluid, 0 minutes
[16] = simulated gastric fluid, 60 minutes
[17] = simulated intestinal fluid, 0 minutes
[18] = simulated intestinal fluid, 180 minutes

hERG (human ether-a-go-go-related gene) channel current, sequence (Q12809 whole entry): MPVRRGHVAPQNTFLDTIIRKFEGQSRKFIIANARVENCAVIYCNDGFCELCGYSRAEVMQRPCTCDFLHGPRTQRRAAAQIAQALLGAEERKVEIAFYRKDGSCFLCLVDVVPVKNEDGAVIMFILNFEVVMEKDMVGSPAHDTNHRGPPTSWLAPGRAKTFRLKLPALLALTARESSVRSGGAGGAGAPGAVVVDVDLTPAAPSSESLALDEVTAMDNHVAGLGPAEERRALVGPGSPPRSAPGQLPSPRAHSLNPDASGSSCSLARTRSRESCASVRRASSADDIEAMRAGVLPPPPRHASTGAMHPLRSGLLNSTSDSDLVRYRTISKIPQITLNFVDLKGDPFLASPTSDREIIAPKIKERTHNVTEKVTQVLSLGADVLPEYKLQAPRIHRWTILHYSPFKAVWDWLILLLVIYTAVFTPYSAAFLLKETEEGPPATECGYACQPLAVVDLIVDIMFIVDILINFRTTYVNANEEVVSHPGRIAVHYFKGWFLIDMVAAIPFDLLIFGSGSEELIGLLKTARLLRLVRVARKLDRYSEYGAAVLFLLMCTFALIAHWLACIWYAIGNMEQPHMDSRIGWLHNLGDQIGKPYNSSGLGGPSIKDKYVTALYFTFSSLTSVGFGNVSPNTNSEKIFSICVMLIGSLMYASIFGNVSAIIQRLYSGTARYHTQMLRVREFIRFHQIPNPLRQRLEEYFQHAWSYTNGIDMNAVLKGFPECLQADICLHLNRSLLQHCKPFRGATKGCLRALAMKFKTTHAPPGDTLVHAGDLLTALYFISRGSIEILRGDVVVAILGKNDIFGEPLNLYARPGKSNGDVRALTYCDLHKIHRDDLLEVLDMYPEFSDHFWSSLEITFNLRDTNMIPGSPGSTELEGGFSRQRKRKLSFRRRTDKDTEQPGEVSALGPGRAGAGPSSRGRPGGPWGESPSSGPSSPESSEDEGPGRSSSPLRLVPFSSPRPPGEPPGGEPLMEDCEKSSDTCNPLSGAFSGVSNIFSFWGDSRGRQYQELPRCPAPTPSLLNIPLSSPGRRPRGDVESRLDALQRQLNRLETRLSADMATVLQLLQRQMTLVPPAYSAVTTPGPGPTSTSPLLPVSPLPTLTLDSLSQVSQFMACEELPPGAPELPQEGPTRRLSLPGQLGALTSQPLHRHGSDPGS
T1 sequence (Q12809 whole entry): as above
hERG (human ether-à-go-go-related gene) channel current, sequence (Q12809 whole entry): as above

CCC(=O)C(C[C@H](C)N(C)C)(c1ccccc1)c1ccccc1 [esmethadone]
Model-predicted ΔΔQTcF at 10 ms Threshold concentration ([1]; 300 ng/ml, linear model, (90% CI)): 7.18 (4.36, 10.00) ms | Model-predicted ΔΔQTcF at geometric mean Cmax ([1]; 25 mg QD group after 75 mg loading dose, 265.2 ng/mL, linear model, (90% CI)): 6.7 ms and 6.71 ms and 6.71 (3.94, 9.48) ms | Maximum LS mean ΔΔQTcF, by-time point analysis ([1]; 25 mg dose group (75 mg loading), Day 2 pre-dose time point): 7.7 ms | Model-predicted ΔΔQTcF at geometric mean Cmax ([1]; 50 mg QD group after 100 mg loading dose, 337.8 ng/mL, linear model, (90% CI)): 7.7 ms and 7.69 ms and 7.69 (4.80, 10.58) ms | Maximum LS mean ΔΔQTcF, by-time point analysis ([1]; 50 mg dose group (100 mg loading), Day 1, 8 hour time point): 10.9 ms | Slope of the concentration-QTc relationship (esmethadone Slope) [1, 14]: 0.014 ms per ng/mL | Treatment effect-specific intercept (Treatment Effect) [1, 14]: 3.11 ms | ECG morphology changes ([1]; studied doses): no clinically significant ECG morphology changes | Effect on QTc ([1]; studied doses): modest, dose-dependent increase in QTc | Effect on heart rate, PR, or QRS ([1]; studied doses): no clinically significant effect | Effect on HR ([2]; Day 10): mild HR slowing | Peak ΔΔQTcF, time-based central tendency analysis ([2]; Day 10, 25 mg cohort): 11.5 ms | Peak ΔΔQTcF, time-based central tendency analysis ([2]; Day 10, 50 mg QD cohort): 26.8 ms | Peak ΔΔQTcF, time-based central tendency analysis ([2]; Day 10, 75 mg QD cohort): 28.8 ms | Subjects with pronounced QTcF prolongation (QTcF>60 ms or absolute QTcF>480 ms) ([2]; categorical analysis, any treatment group): no subjects | Effects on the PR or QRS intervals ([2]; in vivo): no clinically meaningful effects | Cmax [3]: 273 ng/mL | Highest PK values on Day 1 ([4]; 25 mg (75 mg Day 1)): 254.5 ng/mL | Highest PK values on Day 1 ([4]; 50 mg (100 mg Day 1)): 343.9 ng/mL | Cmax ([4]; 25 mg QD group, Day 1 after 75 mg loading dose): 265 ng/mL | Cmax ([4]; 50 mg QD group, Day 1 after 100 mg loading dose): 338 ng/mL | Steady state Ctrough concentration (Day 10) ([5]; 25 mg): 142.7 ng/mL | Steady state Ctrough concentration (Day 10) ([5]; 50 mg): 326.2 ng/mL | Steady state Ctrough concentration (Day 10) ([5]; 75 mg): 338.8 ng/mL | inhibition at 0.3 µM [6]: 27.3 ± 1.6% | inhibition at 1 µM [6]: 48.8 ± 3.4% | inhibition at 3 μM [6]: 68.6 ± 0.3% | inhibition at 10 µM [6]: 88.6 ± 0.7% | IC50 [7]: 1000 nM | Hill coefficient ([7]; GLP study): 0.8

CCC(=O)C(C[C@H](C)N(C)C)(c1ccccc1)c1ccccc1 [esmethadone HCl]
recovery ([8]; Caco-2, Mean recovery values, across the assays): 51 to 74% | recovery ([8]; Caco-2, Percent Recovery, Mean (SD), A-B, 1 μg/mL): 51% | recovery ([8]; Caco-2, Percent Recovery, Mean (SD), A-B, 10 μg/mL): 57% | recovery ([8]; Caco-2, Percent Recovery, Mean (SD), A-B, 100 μg/mL): 61% | recovery ([8]; Caco-2, Percent Recovery, Mean (SD), B-A, 1 μg/mL): 60% | recovery ([8]; Caco-2, Percent Recovery, Mean (SD), B-A, 10 μg/mL): 74% | recovery ([8]; Caco-2, Percent Recovery, Mean (SD), B-A, 100 μg/mL): 74% | recovery ([8]; Caco-2, Percent Recovery, Rep. 1-3, A-B, 1 μg/mL): 53% | recovery ([8]; Caco-2, Percent Recovery, Rep. 1-3, A-B, 10 μg/mL): 57% | recovery ([8]; Caco-2, Percent Recovery, Rep. 1-3, A-B, 100 μg/mL): 64% | recovery ([8]; Caco-2, Percent Recovery, Rep. 1-3, B-A, 1 μg/mL): 65% | recovery ([8]; Caco-2, Percent Recovery, Rep. 1-3, B-A, 10 μg/mL): 67% | recovery ([8]; Caco-2, Percent Recovery, Rep. 1-3, B-A, 100 μg/mL): 74% | Papp A→B ([8]; Mean (SD)): 16.3 ×10⁻⁶ cm/s | Papp B→A ([8]; Mean (SD)): 28.6 ×10⁻⁶ cm/s | Papp A→B ([8]; Rep. 1-3): 21 ×10⁻⁶ cm/s | Papp B→A ([8]; Rep. 1-3): 29.4 ×10⁻⁶ cm/s | Percent Recovery, Rep. 1-3 ([9]; A-B, 10 μg/mL): 54% | Percent Recovery, Rep. 1-3 ([9]; A-B, 100 μg/mL): 56% | Percent Recovery, Rep. 1-3 ([9]; B-A, 1 μg/mL): 58% and 59% | Percent Recovery, Rep. 1-3 ([9]; B-A, 10 μg/mL): 82% | Percent Recovery, Rep. 1-3 ([9]; B-A, 100 μg/mL): 82% and 68% | Permeability category ([9]; Caco-2): high permeability | % Compound Remaining, Mean [10, 15]: 100 % remaining | % Compound Remaining, Rep. 1-3 [10, 15]: 100.0 % remaining | % Compound Remaining, Mean [10, 16]: 109 % remaining | % Compound Remaining, Rep. 1-3 [10, 16]: 110.2 % remaining and 127.3 % remaining and 90.0 % remaining | % Compound Remaining, Mean [10, 17]: 100 % remaining | % Compound Remaining, Rep. 1-3 [10, 17]: 100.0 % remaining | % Compound Remaining, Mean [10, 18]: 97 % remaining | % Compound Remaining, Rep. 1-3 [10, 18]: 89.6 % remaining and 96.6 % remaining and 105.9 % remaining | solubility thermodynamic ([11]; pH 1.2, simulated gastric fluid, Mean, pH 1.2, 37° C.): 58.8 mg/mL | solubility thermodynamic ([11]; pH 1.2, simulated gastric fluid, replicates, pH 1.2, 37° C., individual replicates): 62.1 mg/mL | solubility thermodynamic ([11]; pH 4.5, aqueous buffer, Mean, pH 4.5, 37° C.): 66.9 mg/mL | solubility thermodynamic ([11]; pH 4.5, aqueous buffer, replicates, pH 4.5, 37° C., individual replicates): 67 mg/mL | solubility thermodynamic ([11]; pH 6.8, aqueous buffer, Mean, pH 6.8, 37° C.): 3.2 mg/mL | solubility thermodynamic ([11]; pH 6.8, aqueous buffer, replicates, pH 6.8, 37° C., individual replicates): 3.1 mg/mL | Stability of the drug substance in each buffer ([11]; over the total time of the solubility study): ≤ 10% | Equilibrium solubility, replicates ([11]; pH 1.2, 37° C., individual replicates): 60.0 mg/mL and 54.2 mg/mL | Equilibrium solubility, replicates ([11]; pH 4.5, 37° C., individual replicates): 66.7 mg/mL and 66.8 mg/mL | Equilibrium solubility, replicates ([11]; pH 6.8, 37° C., individual replicates): 3.2 mg/mL

CCC(=O)C(CC(C)N(C)C)(c1ccccc1)c1ccccc1 (racemic) [racemic methadone]
IC50 [12]: 1000 nM | inhibition at 0.3 µM ([12]; 0.3 μM, read-out: Inhibition of hERG current (Mean, SEM; n=4)): 33.4% | inhibition at 1 µM ([12]; 1 uM, read-out: Inhibition of hERG current (Mean, SEM; n=4)): 43.6% | inhibition at 10 µM ([12]; 10 μM, read-out: Inhibition of hERG current (Mean, SEM; n=4)): 86.9% | inhibition at 3 μM ([12]; 3 AM, read-out: Inhibition of hERG current (Mean, SEM; n=4)): 71.1% | Hill coefficient [13]: 0.743

CCC(=O)C(C[C@@H](C)N(C)C)(c1ccccc1)c1ccccc1 [levomethadone]
inhibition at 0.366 µM ([12]; 0.366 μM (n=5), 35-37° C., read-out: Inhibition of hERG current (Mean±SEM)): 36 ± 4.9% | inhibition at 1.13 µM ([12]; 1.13 μM (n=4), read-out: Inhibition of hERG current (Mean±SEM)): 54.3 ± 6.7% | inhibition at 3.32 µM ([12]; 3.32 μM (n=4), read-out: Inhibition of hERG current (Mean±SEM)): 73.6 ± 1.5% | inhibition at 11.2 µM ([12]; 11.2 μM, read-out: Inhibition of hERG current (Mean±SEM)): 90 ± 0.5% | IC50 [13]: 828 nM | Hill coefficient [13]: 0.764

Source: US20240122878A1 (priority 2021, published 2024)
